# In PMC12441843 (ACS pharmacology & translational science, 2025):
# Values joined by “and” are separate entries in the source; they are usually repeats but may differ in a detail not shown here. Identical values can stand only once. Like-named read-outs stand apart in the source and are kept apart here.
# What was measured:
# [1] = tested on: senescent lung fibroblasts; test: Cleaved caspase-3 (CCasp3) immunocytochemistry in senescent lung fibroblasts; format: cell-based, human; conditions: for Senolytic window (EC50pro/EC50sen): ratio of proliferating to senescent fibroblast EC50; for concentration above which senolytic effects were displayed: CCasp3 dose-response
# [2] = tested on: proliferating lung fibroblasts; test: Cleaved caspase-3 (CCasp3) immunocytochemistry in proliferating lung fibroblasts; format: cell-based, human
# [3] = tested on: mice with bleomycin induced lung fibrosis; test: Oral dose-finding study with F-4N in bleomycin mice (body mass, lung cytokine transcripts); format: in vivo, mouse
# [4] = Plasma stability assay, mouse plasma; format: in vitro ADME
# [5] = tested on: repeated bleomycin-induced lung fibrosis; test: Repeated bleomycin-induced model of lung fibrosis; format: in vivo, mouse; conditions: 10mg/kg daily i.p. for two weeks
# [6] = Plasma stability assay, human plasma; format: in vitro ADME
# [7] = tested on: proliferating lung fibroblasts; test: Annexin V / Propidium Iodide flow cytometry, proliferating fibroblasts; format: cell-based, human; conditions: 72 hours, F-4N 3.0 μM
# [8] = Plasma levels following oral delivery of F-4N; format: in vivo; conditions: both sexes, mouse, 30 mg/kg
# [9] = tested on: precision-cut lung slices from bleomycin-injured aged mouse lungs; test: Precision-cut lung slices (PCLS) from aged mice +/- bleomycin, qPCR; conditions: 72 hours ex vivo; for Col1a1 expression in PCLS: Nintedanib 1.0μM, vs. vehicle
# [10] = Mouse liver microsomal stability; format: in vitro ADME; conditions: mouse liver microsomes, 1 μM
# [11] = tested on: senescent lung fibroblasts; test: Annexin V / Propidium Iodide flow cytometry, senescent fibroblasts; format: cell-based, human; conditions: 72 hours, F-4N 3.0 μM
# [12] = tested on: bleomycin-induced lung fibrosis in aged mice; test: Bleomycin-induced model of lung fibrosis in aged mice; format: in vivo, mouse
# [13] = tested on: bleomycin-induced lung fibrosis; test: Bleomycin model in young Col1a2-mTmG mice, FACS-sorted fibroblasts and epithelial cells, qPCR; format: in vivo, mouse
# [14] = Homo sapiens, Fibroblast, 72 h, read-out: Senescent fibroblast apoptosis EC50
# [15] = Homo sapiens, Fibroblast, 72 h, read-out: Proliferating fibroblast apoptosis EC50, cleaved caspase-3 staining, 72 hours, low passage human lung fibroblasts
# [16] = F-4N 3µM, ABT-263 5.0µM, ABT-199 3µM
# [17] = 10 mg/kg i.p. daily days 14-28, vs. vehicle
# [18] = read-out: Proliferating fibroblast apoptosis EC50, cleaved caspase-3 staining, 72 hours, low passage human lung fibroblasts
# [19] = senescent vs. proliferating fibroblasts, 72 hours
compound,measurement,setting,value
"CC1(C)CCC(CN2CCN(c3ccc(C(=O)NS(=O)(=O)c4ccc(NCC5CCOCC5)c([N+](=O)[O-])c4)c(Oc4cnc5[nH]ccc5c4)c3)CC2)=C(c2ccc(Cl)cc2)C1 [ABT-199, venetoclax, reference compound]",EC50,[1]; [14],3.2 µM
same,Senolytic window (EC50pro/EC50sen),[1],23.9
same,EC50,[2]; [15],76.5 µM
"CC1(C)CCC(c2ccc(Cl)cc2)=C(CN2CCN(c3ccc(C(=O)NS(=O)(=O)c4ccc(N[C@H](CCN5CCOCC5)CSc5ccccc5)c(S(=O)(=O)C(F)(F)F)c4)cc3)CC2)C1 [ABT-263, navitoclax, reference compound]",EC50,[1]; [14],1.9 µM
same,Senolytic window (EC50pro/EC50sen),[1],7.8
same,EC50,[2]; [15],14.9 µM
"CN(C)CC[C@H](CSc1ccccc1)Nc1ccc(S(=O)(=O)NC(=O)c2ccc(N3CCN(Cc4ccccc4-c4ccc(Cl)cc4)CC3)cc2)cc1[N+](=O)[O-] [ABT-737, reference compound]",EC50,[1]; [14],0.7 µM
same,EC50,[2]; [15],9.7 µM
O=c1c(O)c(-c2ccc(OCc3ccccn3)cc2)oc2ccccc12 [Compound F-2N],EC50,[1]; [14],21.8 µM
same,Senolytic window (EC50pro/EC50sen),[1],1.4
same,EC50,[2]; [15],29.8 µM
O=c1c(O)c(-c2ccc(OCc3cccnc3)cc2)oc2ccccc12 [Compound F-3N],EC50,[1]; [14],11.2 µM
same,Senolytic window (EC50pro/EC50sen),[1],1.3
same,EC50,[2]; [15],14.9 µM
O=c1c(O)c(-c2ccc(OCc3ccncc3)cc2)oc2ccccc12 [Compound F-4N],bodyweight,[3]; 30mg/kg daily p.o. for one week,improvement in bodyweight
same,"minimum effective oral dose to impact expression of Infa2, Il6, Ccl19, Cxcl13, Tgfb2, Ltb","[3]; daily p.o. 7 days, whole lung qPCR",30 mg/kg
same,half-life at 1 μM,[4],> 120 min
same,"expression of aberrant basaloid/intermediate epithelial markers Snf, Cldn4, Krt19, Mmp7",[5],repressing expression
same,"expression of mature alveolar epithelial markers Hopx, Ager, Sftpa1, Sftpc",[5],enhanced expression
same,"body mass, lung architecture, collagen content, whole lung gene expression",[5]; vs. vehicle,features consistent with resolution
same,half-life at 1 μM,[6],> 120 min
same,apoptosis (Annexin V / Propidium Iodide),[7],without an observable impact
same,concentration at 2 h,[8],561 ng/mL and 1.62 µM
same,markers indicative of alveolar regeneration in PCLS,[9]; [16],stimulated expression of markers indicative of alveolar regeneration
same,senescence associated markers in PCLS,[9]; [16],supported reductions in senescence associated markers
same,microsomal half-life relative to quercetin,[10],> 3 fold
same,greater senolytic potency in vitro compared to fisetin or quercetin,[1],~ 50 X
same,EC50,[1]; [14],0.8 µM
same,EC50,"[1]; Homo sapiens, Fibroblast, read-out: EC50 (senolytic potency, CCasp3 assay)",0.9 µM
same,IC50,"[1]; Homo sapiens, Fibroblast, read-out: defined in vitro IC50",0.9 µM
same,Senolytic window (EC50pro/EC50sen),[1],61.1
same,cleaved caspase-3 expression in senescent fibroblasts derived from multiple stimuli,"[1]; senescence by replication, radiation, etoposide or bleomycin, 72 hours, F-4N 3µM",induces cleaved caspase-3 expression
same,senolytic window (selective),[1]; senescent vs. proliferating fibroblasts,61.1 fold
same,apoptosis (Annexin V / Propidium Iodide),[11],selective apoptosis in senescent lung fibroblasts
same,plasma levels of IL-6,[12]; 10 mg/kg i.p. daily days 14-28,nearly complete normalization
same,lung collagen content (hydroxyproline),[12]; [17],nearly complete resolution of lung collagen content
same,mouse survival,[12]; [17],improvement in mouse survival
same,whole lung expression of ECM and senescence-associated transcripts,[12]; [17],significantly lower expression
same,whole lung markers associated with alveolar regeneration and repair,[12]; [17],significantly elevated
same,EC50,[2]; [15],48.9 µM
CCOc1ccc(-c2oc3ccccc3c(=O)c2O)cc1 [Compound F-19],expression of Sftpc and Hopx (mature alveolar epithelium) in PCLS,[9]; F-19 10μM,increased expression
same,Col1a1 expression in PCLS,[9]; F-19 10μM,reduced expression of Col1a1
same,"expression of senescence-associated markers Cdkn2a, Cdkn1a, Il6 in PCLS","[9]; F-19 10μM, vs. vehicle- and nintedanib-treated",significantly reduced expression
same,more potent than the natural products Q or F,[1],10 fold
same,ranking in follow-up dose-response of the commercial flavonol library,"[1]; CCasp3, senescent and proliferating lung fibroblasts",most potent and selective senolytics
same,EC50,[1]; [14],2.4 µM
same,Senolytic window (EC50pro/EC50sen),[1],10.2
same,expression of TNF-α in fibroblasts and epithelial cells,[13]; 10 mg/kg i.p. daily for 4 days,did not alter expression
same,"expression of pathological markers of lung fibrosis (ECM genes, senescence-associated soluble factors, aberrant basaloid markers)",[13]; 10 mg/kg i.p. daily for 4 days,normalized expression
same,expression of Cdkn2a (p16) and Cdkn1a (p21) in fibroblasts and epithelial cells,"[13]; 10 mg/kg i.p. daily for 4 days from day 10 after bleomycin, vs. vehicle",significantly reduced expression
same,"expression of alveolar epithelial ATII, ATII/ATI and ATI markers","[13]; 10 mg/kg i.p. daily for 4 days, vs. vehicle",elevated expression
same,EC50,[2]; [15],25 µM
same,EC50,[2]; [18],24.5 µM
O=c1c(O)c(-c2ccc(OCc3ccccc3)cc2)oc2ccccc12 [Compound F-20],EC50,[1]; [14],1.5 µM
same,Senolytic window (EC50pro/EC50sen),[1],18.4
same,EC50,[2]; [15],27.6 µM
CCCOc1ccc(-c2oc3ccccc3c(=O)c2O)cc1 [F-19(Me)],Senolytic window (EC50pro/EC50sen),[1],5.7
same,EC50,"[1]; read-out: Senescent fibroblast apoptosis EC50, cleaved caspase-3 staining, 72 hours, replicative senescent human lung fibroblasts",3.4 µM
same,EC50,[2]; [18],19.5 µM
"O=c1c(O)c(-c2ccc(O)c(O)c2)oc2cc(O)ccc12 [fisetin, reference compound]",concentration above which senolytic effects were displayed,[1]; [19],above 30 μM
"COC(=O)c1ccc2c(c1)NC(=O)/C2=C(\Nc1ccc(N(C)C(=O)CN2CCN(C)CC2)cc1)c1ccccc1 [nintedanib, reference compound]",Col1a1 expression in PCLS,[9]; F-19 10μM,reduced expression of Col1a1
"O=c1c(O)c(-c2ccc(O)c(O)c2)oc2cc(O)cc(O)c12 [quercetin, reference compound]",half-life at 1 μM,[4],~30 min
same,half-life at 1 μM,[6],~30 min
same,concentration above which senolytic effects were displayed,[1]; [19],above 30 μM
same,EC50,[1]; [14],> 30 µM
